Measured values reported in US6268496A, “Certain imidazoquinoxalines: a new class of GABA brain receptor ligands” (Neurogen Corporation, priority 1999, dated 2001).

Experiments:
GABAa receptor = GABAa receptor activity: displacement of 3H-RO15-1788 (3H-Flumazenil) binding in rat cortical tissue homogenate; conditions: 0.5 nM 3H-RO15-1788 [3H-Flumazenil], 30 min at 4° C., pH 7.4
Protocol: Rat cortical tissue is dissected and homogenized in 25 volumes (w/v) of 0.05 M Tris HCl buffer (pH 7.4 at 4° C.). The tissue homogenate is centrifuged in the cold (4°) at 20,000×g for 20'. The supernatant is decanted and the pellet is rehomogenized in the same volume of buffer and again centrifuged at 20,000×g. The supernatant is decanted and the pellet is frozen at -20° C. overnight. The pellet is then thawed and rehomogenized in 25 volume (original wt/vol) of buffer and the procedure is carried out twice. The pellet is finally resuspended in 50 volumes (w/vol of 0.05 M Tris HCl buffer (pH 7.4 at […]).
Incubations are carried for 30 min at 4° C. then are rapidly filtered through GFB filters to separate free and bound ligand. Filters are washed twice with fresh 0.05 M Tris HCl buffer (pH 7.4 at 4° C.) and counted in a liquid scintillation counter. […] diazepam is added to some tubes to determine nonspecific binding. Data are collected in triplicate determinations, averaged and % inhibition of total specific binding is calculated. Total Specific Binding=Total-Nonspecific. In some cases, the amounts of unlabeled drugs is varied and total displacement curves of binding are carried out. Data are converted to a form for the calculation of IC50 and Hill Coefficient (nH).

[1] = system: benzodiazepine binding site; conditions: cited from earlier work

IC50 (GABAa receptor) [nM] | Structure (SMILES) | further results
9.5 | O=c1c2c[nH]c3ccccc3n-2c(=O)n1-c1ccccc1 [Compound 1, 2-Phenyl-imidazo[1,5-a]quinoxaline-1,3(2H,5H)-dione] | –
– | NCCCC(=O)O [GABA, γ-Aminobutyric acid] | effect on binding of benzodiazepines ([1]; low affinity (1 mM) GABA binding site): enhance the binding of benzodiazepines
– | CN1CCc2cc3c(cc2[C@@H]1[C@H]1OC(=O)c2c1ccc1c2OCO1)OCO3 [(-) bicuculline] | block of the enhancement of benzodiazepine binding by GABA agonists [1]: much less active
9.5 | COc1ccc(-n2c(=O)c3c[nH]c4ccccc4n-3c2=O)cc1 [Compound 4, 2-(4-Methoxyphenyl)-imidazo[1,5,a]quinoxaline-1,3(2H,5H)-dione] | –
– | CN1CCc2cc3c(cc2[C@H]1[C@@H]1OC(=O)c2c1ccc1c2OCO1)OCO3 [(+) bicuculline] | block of the enhancement of benzodiazepine binding by GABA agonists [1]: blocked
16 | Cc1ccc(-n2c(=O)c3c[nH]c4ccccc4n-3c2=O)cc1 [Compound 5, 2-(4-Methylphenyl)-imidazo[1,5,a]quinoxaline-1,3(2H,5H)-dione] | –

Structure (SMILES) | IC50 (GABAa receptor) [nM] | further results
COc1ccc(-n2c(=O)c3c[nH]c4ccc(Br)cc4n-3c2=O)cc1 [Compound 33, 8-Bromo-2-(4-methoxyphenyl)-imidazo[1,5,a]quinoxaline-1,3(2H,5H)-dione] | 2.4 | –
CCOc1ccc(-n2c(=O)c3c[nH]c4ccccc4n-3c2=O)cc1 [Compound 3, 2-(4-ethoxyphenyl)-imidazo[1,5,a]quinoxaline-1,3(2H,5H)-dione] | 15 | –
